The structures appear in SMILES notation. Where only a bound is given, the exact number is not on record here.

Data set [1] can be described thus: Bulk/tapped density (USP Test 616), compressibility index and particle size distribution of repaglinide. In kind it is physicochemical. The source says: The percentages of particles with different sizes that exist in a total powder is the particle size distribution. It is represented in certain ways. Particle size is the maximum dimension of a particle, frequently expressed in μm. Particle size distributions can be expressed in terms of, D10, D50, D90 and D[4,3]. The D10, D50 and D90 represent the 10th, median or the 50th percentile, and the 90th percentile of the particle size distribution, respectively, as measured by volume. That is, the D10, D50, D90 are values of the distribution such that 10%, 50%, or 90% of the particles have a volume of this value or less, or is the percentage of particles smaller than that size. D50 is also known as median diameter of particle. It is one of the important parameters representing characteristics of particles of powders. For a sample, if D50=5 μm, it means that 50% of the particles are smaller than 5 μm. Similarly if D10=5 μm, 10% of the particles are less than or equal to 5 μm, and if D90=5 μm, 90% of the particles have sizes less than or equal to 5 μm. D[4,3] represents the volume moment mean of the particles, or the volume weighted particle size. Densities were determined according to USP Test 616 “Bulk Density and Tapped Density,” and compressibility index is percentage change in volume induced by tapping a sample of fixed mass.

For data set [2] the following is noted: cited from earlier work.

As to `CCOc1cc(CC(=O)N[C@@H](CC(C)C)c2ccccc2N2CCCCC2)ccc1C(=O)O` [Repaglinide, S-(+)-2-Ethoxy-4-(2((3-methyl-1-(2-(1-piperidinyl)phenyl)butyl)amino)2-oxoethyl) benzoic acid], in data set [1], the “Particle size distribution D10” value was 2 μm, the “Particle size distribution D50” value is recorded as less than 4 μm and the “Particle size distribution D90” value is recorded as less than 7 μm. Moreover, in data set [1] (USP Test 616), the Bulk density is 0.176 g/mL and the Tapped density is 0.247 g/mL. Moreover, the Compressibility index in data set [1] (percentage change in volume induced by tapping) amounted to 29.95. Besides, the solubility in methanol entry in data set [2] (methanol) is given as “freely soluble”. The “solubility in methylene chloride” value in data set [2] (methylene chloride) was “freely soluble”. Also, in data set [2] (water), the solubility in water entry is reported as “practically insoluble”.

Values taken from patent US20090209587A1, “REPAGLINIDE FORMULATIONS” (priority 2008, published 2009).
